In publication PMC12869562 (Research Square, 2026):
No end group written: not given here.

Experiment: In vitro plasma stability
Type: in vitro ADME, mouse (C57BL/6)
Details: C57BL/6, mouse, read-out: half-life t1/2 (in vitro plasma) (converted)
Protocol: Each aliquot (50 μl) was mixed with 150 μl methanol, vortexed, spun, removed the supernatant and reconstituted the pellet with 150 μl 10% formic acid in water. The sample was vortexed and spun and a 100 μl aliquot was taken, diluted 1:1 with 10 mM ammonium bicarbonate, and analyzed by LC-MS/MS. Using the remaining vs. time dataset, we performed a first-order decay analysis by fitting a linear regression to the natural log-transformed percent remaining values (excluding 0% and t = 0 anchor point) to plot the graph.

half-life at 5 μg/ml: 5.56 h
Sequence: SSMKLSFRARAYGFRGPGPQL [CST, Catestatin]
